Results as given in US7750048B2, “GPR40 agonists” (Janssen Pharmaceutica NV, priority 2006, dated 2010).
“And” between values parts separate entries of the source, which are not always exact repeats. Equal entries are not always repeated.

Target: T1, GPR40 receptor (Homo sapiens, UniProt O14842)
T1 construct: expressed in transfected cells; host or cells: HEK293 (clone hGPR40-32)
Experiment: GPR40 in vitro assay: calcium mobilization in transfected HEK293/hGPR40-32 cells (FDSS6000)
Format: cell-based
Details: several values in one cell are separate determinations, read-out: ED50 (the source's name)
Protocol: To identify agonists of GPR40 receptor, the following assay was used to measure FFA-induced calcium mobilization in transfected cell lines HEK293/hGPR40-32: • Plate 20,000 cell/well in Corning 384 well plate (Cat# 3712); • Incubate over night (16 to 24 hours); • Remove medium; • Add 40 μl of 1×BD dye (1× signal enhancer, 1× calcium indicator dye, 1× probenecid, 0.01% BSA in DMEM/F12 media without Phenol Rad); • Incubate 30 minutes at 37° C. and 15 minutes at RT; • Read with the FDSS6000 System; • Add 20 μl of test compound (in 0.01% BSA in DMEM/F12 media without Phenol Rad); • Read for 5 minutes; • Add 20 μl of 40 μM linolenic acid or GPR40 agonist (in 0.01% BSA in DMEM/F12 media without Phenol Rad); • Read for 2 minutes.
Percentage Inhibition and/or ED50 were calculated following conventional methods.

T1 sequence (O14842 whole entry): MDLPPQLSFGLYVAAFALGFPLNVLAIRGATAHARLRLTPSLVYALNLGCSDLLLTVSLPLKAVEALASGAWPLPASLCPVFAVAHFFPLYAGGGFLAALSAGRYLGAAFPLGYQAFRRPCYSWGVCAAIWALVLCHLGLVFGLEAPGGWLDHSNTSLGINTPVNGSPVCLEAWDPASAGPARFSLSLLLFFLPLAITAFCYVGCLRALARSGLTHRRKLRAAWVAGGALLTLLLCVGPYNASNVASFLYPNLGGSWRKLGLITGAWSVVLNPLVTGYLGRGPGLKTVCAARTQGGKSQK

| Structure (SMILES) | EC50 |
| --- | --- |
| CCC(CC)COc1ccc(C(CC(=O)O)c2ccccc2)cc1 (racemic) [Compound 11, 3-[4-(2-Ethyl-butoxy)-phenyl]-3-phenyl-propionic acid] | 640 nM |
| CCC(CC)COc1ccc(C(CC(=O)O)c2ccccc2)cc1 (single isomer, unassigned) [Compound 14, 3-[4-(2-Ethyl-butoxy)-phenyl]-3-phenyl-propionic acid] | > 30000 nM |
| CCC(CC)COc1ccc(C(CC(=O)O)c2ccccc2)cc1 (single isomer, unassigned) [Compound 15, 3-[4-(2-Ethyl-butoxy)-phenyl]-3-phenyl-propionic acid] | 850 nM |
| CC[C@@H](C)COc1ccc(C(CC(=O)O)c2ccccc2)cc1 (single isomer, unassigned) [Compound 16, 3-[4-(2-Methyl-butoxy)-phenyl]-3-phenyl-propionic acid] | 710 nM |
| CC[C@H](C)COc1ccc(C(CC(=O)O)c2ccccc2)cc1 (single isomer, unassigned) [Compound 17, 3-[4-(2-Methyl-butoxy)-phenyl]-3-phenyl-propionic acid] | 560 nM |
| CC[C@@H](C)COc1ccc(C(CC(=O)O)c2ccccc2)cc1 (single isomer, unassigned) [Compound 18, 3-[4-(2-Methyl-butoxy)-phenyl]-3-phenyl-propionic acid] | > 10000 nM |
| CC[C@H](C)COc1ccc(C(CC(=O)O)c2ccccc2)cc1 (single isomer, unassigned) [Compound 19, 3-[4-(2-Methyl-butoxy)-phenyl]-3-phenyl-propionic acid] | > 10000 nM |
| CCCOc1ccc(C(CC(=O)O)c2ccccc2)cc1 (stereo not drawn) [Compound 1, 3-Phenyl-3-(4-propoxy-phenyl)-propionic acid] | 3700 nM |
| CCCCOc1ccc(C(CC(=O)O)c2ccccc2)cc1 (stereo not drawn) [Compound 2, 3-(4-Butoxy-phenyl)-3-phenyl-propionic acid] | 1430 nM and 960 nM |
| CCCCCOc1ccc(C(CC(=O)O)c2ccccc2)cc1 (stereo not drawn) [Compound 3, 3-(4-Pentyloxy-phenyl)-3-phenyl-propionic acid] | 3300 nM and 4200 nM and 1400 nM |
| CCCCCCOc1ccc(C(CC(=O)O)c2ccccc2)cc1 (stereo not drawn) [Compound 4, 3-(4-Hexyloxy-phenyl)-3-phenyl-propionic acid] | 2880 nM |
| CCCCCCCOc1ccc(C(CC(=O)O)c2ccccc2)cc1 (stereo not drawn) [Compound 5, 3-(4-Heptyloxy-phenyl)-3-phenyl-propionic acid] | 4260 nM |
| O=C(O)CC(c1ccccc1)c1ccc(OCCCC(F)(F)F)cc1 (stereo not drawn) [Compound 6, 3-Phenyl-3-[4-(4,4,4-trifluoro-butoxy)-phenyl]-propionic acid] | 3160 nM |
| CC(C)CCOc1ccc(C(CC(=O)O)c2ccccc2)cc1 (stereo not drawn) [Compound 7, 3-[4-(3-Methyl-butoxy)-phenyl]-3-phenyl-propionic acid] | 1810 nM and 2580 nM and 1180 nM |
| C=C(C)CCOc1ccc(C(CC(=O)O)c2ccccc2)cc1 (stereo not drawn) [Compound 8, 3-[4-(3-Methyl-but-3-enyloxy)-phenyl]-3-phenyl-propionic acid] | 2710 nM |
| CC=CCOc1ccc(C(CC(=O)O)c2ccccc2)cc1 (stereo not drawn) [Compound 9, 3-(4-But-2-enyloxy-phenyl)-3-phenyl-propionic acid] | 2710 nM |
| COCCCOc1ccc(C(CC(=O)O)c2ccccc2)cc1 (stereo not drawn) [Compound 10, 3-[4-(3-methoxy-propoxy)-phenyl]-3-phenyl-propionic acid] | 7580 nM |
| CCC(C)COc1ccc(C(CC(=O)O)c2ccccc2)cc1 (stereo not drawn) [Compound 12, 3-[4-(2-Methyl-butoxy)-phenyl]-3-phenyl-propionic acid] | 330 nM and 260 nM |
| CC1CCC(Oc2ccc(C(CC(=O)O)c3ccccc3)cc2)CC1 (stereo not drawn) [Compound 13, 3-[4-(4-Methyl-cyclohexyloxy)-phenyl]-3-phenyl-propionic acid] | 7320 nM |
| CCCCOc1ccc(C(CC(=O)O)c2cccc(F)c2)cc1 (stereo not drawn) [Compound 20, 3-(4-Butoxy-phenyl)-3-(3-fluoro-phenyl)-propionic acid] | 1440 nM |
| CCCCOc1ccc(C(CC(=O)O)c2cccc(C(F)(F)F)c2)cc1 (stereo not drawn) [Compound 21, 3-(4-Butoxy-phenyl)-3-(3-trifluoromethyl-phenyl)-propionic acid] | 2840 nM |
| CCCCOc1ccc(C(CC(=O)O)c2ccccc2O)cc1 (stereo not drawn) [Compound 22, 3-(4-Butoxy-phenyl)-3-(2-hydroxy-phenyl)-propionic acid] | 4800 nM |
| CCCCOc1ccc(C(CC(=O)O)c2cccs2)cc1 (stereo not drawn) [Compound 23, 3-(4-Butoxy-phenyl)-3-thiophen-2-yl-propionic acid] | 960 nM and 1610 nM |
| COCCOc1ccc(C(CC(=O)O)c2ccccc2)cc1 (stereo not drawn) [Compound 24, 3-[4-(2-Methoxy-ethoxy)-phenyl]-3-phenyl-propionic acid] | > 10000 nM |
| CCC(CC)Oc1ccc(C(CC(=O)O)c2ccccc2)cc1 (stereo not drawn) [Compound 25, 3-[4-(1-Ethyl-propoxy)-phenyl]-3-phenyl-propionic acid] | > 10000 nM |
| CCCCOc1ccc(C(CC(=O)O)c2ccc(OC(F)(F)F)cc2)cc1 (stereo not drawn) [Compound 26, 3-(4-Butoxy-phenyl)-3-(4-trifluoromethoxy-phenyl)-propionic acid] | > 10000 nM |
| CC(C)(C)CCOc1ccc(C(CC(=O)O)c2ccccc2)cc1 (stereo not drawn) [Compound 28, 3-[4-(3,3-Dimethyl-butoxy)-phenyl]-3-phenyl-propionic acid] | > 10000 nM |
